Test [1] relates to soybean rust pathogen (Phakopsora pachyrhizi). As to the kind of experiment: Soybean rust control test (leaf discs). The format is in vivo. As for the experimental part:
Compounds of component (I) and component (II) were dissolved in dimethyl sulfoxide and diluted with water to the prescribed concentration to prepare a chemical agent solution. A mixture of the prescribed concentration of the chemical agent solution and sterile water was prepared on a microplate, and leaf discs cut from soybean leaves were floated on the microplate. Uredospores of soybean rust pathogen (Phakopsora pachyrhizi) were inoculated and incubated at 25° C. for 9 days. The area percentage of lesions was determined by observing uredospore-forming lesions on the leaf discs, and the control value was calculated. The control value was calculated by the following formula:
Control value (%)=100−{Area percentage of lesions in treatment plot/Area percentage of lesions in untreatment plot}×100.
The results are shown in Tables 8 to 18, along with the expected values calculated as below. Each expected values was calculated from the fungicidal efficacy of a single application of compound of component (I) and the fungicidal efficacy of a single application of compound of component (II) by using Colby's equation:
[formula] • where E represents the expected value of the control value for the composition containing component (I) and component (II), M represents the control value (%) when the component (I) is used alone, and N represents the control value (%) when the component (II) is used alone. When the measured control value for the composition containing component (I) and component (II) is greater than the expected value E, the composition containing component (I) and composition (II) should exert a synergistic effect.

Test [2] has as its system cucumber anthracnose pathogen (Colletotrichum lagenarium). In words: Fungicidal test for cucumber anthracnose (microplate, turbidity at 405 nm). The test is classed as cell-based. The note with it: for inhibition at 0.025 ppm / inhibition at 0.1 ppm / inhibition at 0.4 ppm: Colletotrichum orbiculare, read-out: growth inhibition rate. As for the experimental part: The compounds were dissolved in dimethyl sulfoxide to prepare a chemical agent solution.
A mixture of the prescribed concentration of the chemical agent solution, cucumber anthracnose pathogen (Colletotrichum lagenarium) conidia, and Vogel medium was prepared on a microplate and incubated at 20° C. in the dark for 7 days.
Each expected value was calculated using Colby's equation:
[formula] • where E represents the expected value of the growth inhibition rate (%), M represents the growth inhibition rate (%) when the component (I) is used alone, and N represents the growth inhibition rate (%) when the component (II) is used alone.

Setting [3] is: Table 19, component (II) alone (component (I): None): Ipflufenoquin 0.000026, Iminoctadine trialbesilate 0.0032, Cyflufenamid 10, Cyprodinil 0.00013, Potassium bicarbonate 0.08, Thiophanate-methyl 0.08, Picarbutrazox 0.016, Fludioxonil 0.0032, Florylpicoxamid 0.0032, Metyltetraprole 0.08, Mefentrifluconazole 0.4 ppm.
The mark [4] stands for this setting: Table 20, component (II) alone (component (I): None): Ipflufenoquin 0.00064, Iminoctadine trialbesilate 0.0032, Cyflufenamid 10, Cyprodinil 0.00013, Potassium bicarbonate 0.08, Thiophanate-methyl 0.4, Picarbutrazox 0.016, Fludioxonil 0.0032, Florylpicoxamid 0.0032, Metyltetraprole 0.08, Mefentrifluconazole 0.4 ppm.
Where [5] appears, read: Table 21, component (II) alone (component (I): None): Ipflufenoquin 0.00064, Iminoctadine trialbesilate 0.0032, Cyflufenamid 10, Cyprodinil 0.00013, Potassium bicarbonate 0.08, Thiophanate-methyl 0.4, Picarbutrazox 0.00064, Fludioxonil 0.0032, Florylpicoxamid 0.0032, Metyltetraprole 0.08, Mefentrifluconazole 0.4 ppm.
Setting [6] is: Table 22, component (II) alone (component (I): None): Ipflufenoquin 0.00064, Iminoctadine trialbesilate 0.0032, Cyflufenamid 10, Cyprodinil 0.00013, Potassium bicarbonate 0.08, Thiophanate-methyl 0.4, Picarbutrazox 0.00064, Fludioxonil 0.0032, Florylpicoxamid 0.0032, Metyltetraprole 0.08, Mefentrifluconazole 0.4 ppm.
[7] abbreviates: Table 23, component (II) alone (component (I): None): Ipflufenoquin 0.00064, Iminoctadine trialbesilate 0.0032, Cyflufenamid 10, Cyprodinil 0.000026, Potassium bicarbonate 0.08, Thiophanate-methyl 0.4, Picarbutrazox 0.00064, Fludioxonil 0.00064, Florylpicoxamid 0.0032, Metyltetraprole 0.08, Mefentrifluconazole 0.4 ppm.
[8] abbreviates: Table 24, component (II) alone (component (I): None): Ipflufenoquin 0.00064, Iminoctadine trialbesilate 0.0032, Cyflufenamid 10, Cyprodinil 0.00013, Potassium bicarbonate 0.08, Thiophanate-methyl 0.4, Picarbutrazox 0.00064, Fludioxonil 0.00013, Florylpicoxamid 0.0032, Metyltetraprole 0.08, Mefentrifluconazole 0.4 ppm.

The values below come from patent US20240268388A1, “AGRICULTURAL AND HORTICULTURAL FUNGICIDAL COMPOSITION” (NIPPON SODA CO., LTD., priority 2021, published 2024).

Like-named read-outs stand apart in the source and are kept apart here.

Turning to `CC(C)ON=C1CN(C(=O)Cc2ccc(-c3noc(C(F)(F)F)n3)cc2)C1` [Compound 7], the control value was determined as 16% in test [1] (component (I) alone, 0.0063 ppm); 32% in test [1] (component (I) alone, 0.025 ppm); 64% in test [1] (component (I) alone, 0.1 ppm); 94% in test [1] (component (I) alone, 0.4 ppm).
With `CCON=C1CCN(C(=O)Cc2ccc(-c3noc(C(F)(F)F)n3)cc2)CC1` [Compound 8], the inhibition at 0.025 ppm in test [2] (Compound 8 alone) turned out to be 58%. The inhibition at 0.1 ppm in test [2] (Compound 8 alone) came out at 55%. Moreover, the inhibition at 0.4 ppm in test [2] (Compound 8 alone) stood at 85%. For the same compound, the control value in test [1] (Compound 8 alone, 0.0063 ppm) is 10%; in test [1] (Compound 8 alone, 0.025 ppm), 16%; in test [1] (Compound 8 alone, 0.1 ppm) it was 32%; in test [1] (Compound 8 alone, 0.4 ppm) it was 75%; in test [1] (Compound 8 alone, 1.6 ppm) it was 93%.
Take `CON=C1CCN(C(=O)Cc2ccc(-c3noc(C(F)(F)F)n3)cc2)CC1` [Compound 9]: the inhibition at 0.025 ppm in test [2] (Compound 9 alone) was 42%. The inhibition at 0.1 ppm in test [2] (Compound 9 alone) was 49%. In addition, in test [2] (Compound 9 alone), the inhibition at 0.4 ppm is 83%. The control value is 13% in test [1] (Compound 9 alone, 0.0063 ppm); 34% in test [1] (Compound 9 alone, 0.025 ppm); 49% in test [1] (Compound 9 alone, 0.1 ppm); 96% in test [1] (Compound 9 alone, 0.4 ppm).
Take `O=C(Cc1ccc(-c2noc(C(F)(F)F)n2)cc1)N1CCC(=NOCC(F)(F)F)CC1` [Compound 10]: the inhibition at 0.025 ppm in test [2] (Compound 10 alone) was found to be 63%. Besides, the inhibition at 0.1 ppm in test [2] (Compound 10 alone) came out at 52%. For the same compound, in test [2] (Compound 10 alone), the inhibition at 0.4 ppm came to 96%. The control value is 0% in test [1] (Compound 10 alone, 0.0063 ppm); 27% in test [1] (Compound 10 alone, 0.025 ppm); 42% in test [1] (Compound 10 alone, 0.1 ppm); 66% in test [1] (Compound 10 alone, 0.4 ppm); 94% in test [1] (Compound 10 alone, 1.6 ppm).
Consider `CC(C)ON=C1CCN(C(=O)Cc2ccc(-c3noc(C(F)(F)F)n3)cc2)CC1` [Compound 11], for which the control value came to 6% in test [1] (Compound 11 alone, 0.0063 ppm); 15% in test [1] (Compound 11 alone, 0.025 ppm); 52% in test [1] (Compound 11 alone, 0.1 ppm); 70% in test [1] (Compound 11 alone, 0.4 ppm); 84% in test [1] (Compound 11 alone, 1.6 ppm).
Regarding `O=C(Cc1ccc(-c2noc(C(F)(F)F)n2)cc1)N1CCC(=NO)CC1` [Compound 12], the control value in test [1] (Compound 12 alone, 0.0063 ppm) came to 21%; in test [1] (Compound 12 alone, 0.025 ppm), 33%; in test [1] (Compound 12 alone, 0.1 ppm), 64%; in test [1] (Compound 12 alone, 0.4 ppm), 92%.
As to `O=C(Cc1ccccc1)N/C(=N\OCC1CC1)c1c(C(F)(F)F)ccc(F)c1F` [Cyflufenamid], the growth inhibition rate in test [2] (setting [3]), in test [2] (setting [4]), in test [2] (setting [5]), in test [2] (setting [6]), in test [2] (setting [7]) and in test [2] (setting [8]) was 64% in each case.
Turning to `Cc1cc(C2CC2)nc(Nc2ccccc2)n1` [Cyprodinil], the growth inhibition rate in test [2] (setting [3]) came out at 12%; in test [2] (setting [4]) it was 12%; in test [2] (setting [5]), 12%; in test [2] (setting [6]), 12%; in test [2] (setting [7]), 0%; in test [2] (setting [8]), 12%.
Turning to `N#Cc1c[nH]cc1-c1cccc2c1OC(F)(F)O2` [Fludioxonil], the growth inhibition rate in test [2] (setting [3]) is given as 64%; in test [2] (setting [4]) it was 64%; in test [2] (setting [5]) it was 64%; in test [2] (setting [6]), 64%; in test [2] (setting [7]), 0%; in test [2] (setting [8]), 0%.
Take `CCCCCCCCCCCCc1ccc(S(=O)(=O)O)cc1.CCCCCCCCCCCCc1ccc(S(=O)(=O)O)cc1.CCCCCCCCCCCCc1ccc(S(=O)(=O)O)cc1.NC(N)=NCCCCCCCCNCCCCCCCCN=C(N)N` [Iminoctadine trialbesilate]: the growth inhibition rate in test [2] (setting [3]), in test [2] (setting [4]), in test [2] (setting [5]), in test [2] (setting [6]), in test [2] (setting [7]) and in test [2] (setting [8]) was 22% each time.
Take `CC(O)(Cn1cncn1)c1ccc(Oc2ccc(Cl)cc2)cc1C(F)(F)F` (stereo not drawn) [Mefentrifluconazole]: the growth inhibition rate in test [2] (setting [3]), in test [2] (setting [4]), in test [2] (setting [5]), in test [2] (setting [6]), in test [2] (setting [7]) and in test [2] (setting [8]) was 64% in each case.
For the compound `CNC(=O)/C(=N/OC)c1ccccc1Oc1ccccc1` [Metominostrobin], the control value in test [1] (Table 14, component (II) alone (component (I): None): Inpyrfluxam 0.00025, Chlorothalonil 0.006, Thiophanate-methyl 0.0001, Tebuconazole 0.000025, Trifloxystrobin 0.0001, Fluazinam 0.006, Prothioconazole 0.000025, Florylpicoxamid 0.0001, Metominostrobin 0.0004 ppm) is 27%; in test [1] (Table 16, component (II) alone (component (I): None): Inpyrfluxam 0.000025, Chlorothalonil 0.006, Thiophanate-methyl 0.0001, Tebuconazole 0.000025, Trifloxystrobin 0.0001, Fluazinam 0.006, Prothioconazole 0.000025, Florylpicoxamid 0.0001, Metominostrobin 0.0004 ppm) it was 27%; in test [1] (Table 17, component (II) alone (component (I): None): Inpyrfluxam 0.000026, Chlorothalonil 0.02, Thiophanate-methyl 0.0004, Tebuconazole 0.0001, Trifloxystrobin 0.0001, Fluazinam 0.006, Prothioconazole 0.000025, Florylpicoxamid 0.0001, Metominostrobin 0.0004 ppm), 27%.
For `Cc1cccc(-n2nnn(C)c2=O)c1COc1ccn(-c2ccc(Cl)cc2)n1` [Metyltetraprole], the growth inhibition rate in test [2] (setting [3]), in test [2] (setting [4]), in test [2] (setting [5]), in test [2] (setting [6]), in test [2] (setting [7]) and in test [2] (setting [8]) was 77% throughout.
`Cn1nnnc1/C(=N\OCc1cccc(NC(=O)OC(C)(C)C)n1)c1ccccc1` [Picarbutrazox]: the growth inhibition rate in test [2] (setting [3]) is 87%; in test [2] (setting [4]) it was 87%; in test [2] (setting [5]), 0%; in test [2] (setting [6]) it was 0%; in test [2] (setting [7]) it was 0%; in test [2] (setting [8]), 0%.
Take `O=C([O-])O.[K+]` [Potassium bicarbonate]: the growth inhibition rate in test [2] (setting [3]), in test [2] (setting [4]), in test [2] (setting [5]), in test [2] (setting [6]), in test [2] (setting [7]) and in test [2] (setting [8]) was 53% throughout.

One may read the inhibition as how much of the control response was suppressed.
